# Tests used:
# [1] = molecular target: BRM (Homo sapiens, UniProt P51531); assay: ATPase catalytic activity assay (ADP-Glo), BRM; details: 30 nM BRM, 400 μM ATP; for IC50: BRM ATPase: IC50 (uM)
# [2] = molecular target: BRG-1 (Homo sapiens, UniProt P51532); assay: ATPase catalytic activity assay (ADP-Glo), BRG-1; details: for Emax: 1 h, read-out: BRG1 Max % Inhibition, ADP-Glo, 30 nM BRG-1, 400 μM ATP
# Chain of BRG-1 (P51532 whole entry): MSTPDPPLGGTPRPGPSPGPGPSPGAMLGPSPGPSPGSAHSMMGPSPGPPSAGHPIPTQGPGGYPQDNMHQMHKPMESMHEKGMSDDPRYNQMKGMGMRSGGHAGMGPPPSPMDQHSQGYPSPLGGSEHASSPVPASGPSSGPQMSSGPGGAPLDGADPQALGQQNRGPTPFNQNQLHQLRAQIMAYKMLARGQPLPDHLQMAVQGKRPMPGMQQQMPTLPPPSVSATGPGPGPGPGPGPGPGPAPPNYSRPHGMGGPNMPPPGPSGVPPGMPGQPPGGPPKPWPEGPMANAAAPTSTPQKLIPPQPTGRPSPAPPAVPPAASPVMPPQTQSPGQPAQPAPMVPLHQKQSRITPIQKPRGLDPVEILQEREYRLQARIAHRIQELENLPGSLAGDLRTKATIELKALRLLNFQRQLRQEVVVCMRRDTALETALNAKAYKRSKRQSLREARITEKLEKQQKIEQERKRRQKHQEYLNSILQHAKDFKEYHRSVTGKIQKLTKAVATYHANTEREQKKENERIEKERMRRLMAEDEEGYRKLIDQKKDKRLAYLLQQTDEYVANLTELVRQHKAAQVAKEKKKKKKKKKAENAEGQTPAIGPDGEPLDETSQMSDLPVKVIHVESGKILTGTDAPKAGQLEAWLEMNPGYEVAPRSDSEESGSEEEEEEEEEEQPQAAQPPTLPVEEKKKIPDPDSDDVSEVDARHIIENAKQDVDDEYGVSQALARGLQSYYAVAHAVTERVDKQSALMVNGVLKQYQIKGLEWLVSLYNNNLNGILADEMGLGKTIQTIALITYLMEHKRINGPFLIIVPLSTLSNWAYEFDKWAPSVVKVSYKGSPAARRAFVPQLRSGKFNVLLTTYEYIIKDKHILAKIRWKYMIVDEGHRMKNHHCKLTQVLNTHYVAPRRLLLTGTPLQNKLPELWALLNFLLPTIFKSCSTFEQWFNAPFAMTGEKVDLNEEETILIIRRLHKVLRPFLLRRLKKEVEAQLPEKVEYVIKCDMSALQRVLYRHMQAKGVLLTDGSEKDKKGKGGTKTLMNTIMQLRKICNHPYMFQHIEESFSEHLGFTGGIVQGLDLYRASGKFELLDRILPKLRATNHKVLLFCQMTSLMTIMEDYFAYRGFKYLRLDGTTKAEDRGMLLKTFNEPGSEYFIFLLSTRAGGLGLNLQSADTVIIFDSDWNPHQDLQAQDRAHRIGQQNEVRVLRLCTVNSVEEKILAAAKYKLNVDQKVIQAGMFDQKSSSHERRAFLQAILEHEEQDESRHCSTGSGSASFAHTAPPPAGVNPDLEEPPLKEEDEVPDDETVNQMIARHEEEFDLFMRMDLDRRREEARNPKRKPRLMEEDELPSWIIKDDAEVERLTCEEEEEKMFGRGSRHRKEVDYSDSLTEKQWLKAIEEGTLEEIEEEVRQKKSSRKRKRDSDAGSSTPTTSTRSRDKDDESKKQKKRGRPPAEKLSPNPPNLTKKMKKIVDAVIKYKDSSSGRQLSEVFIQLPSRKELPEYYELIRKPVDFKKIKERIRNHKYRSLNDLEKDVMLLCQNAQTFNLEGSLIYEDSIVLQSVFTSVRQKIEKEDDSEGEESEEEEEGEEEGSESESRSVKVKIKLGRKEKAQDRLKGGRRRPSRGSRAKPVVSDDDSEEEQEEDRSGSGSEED
# Chain of BRM (P51531 whole entry): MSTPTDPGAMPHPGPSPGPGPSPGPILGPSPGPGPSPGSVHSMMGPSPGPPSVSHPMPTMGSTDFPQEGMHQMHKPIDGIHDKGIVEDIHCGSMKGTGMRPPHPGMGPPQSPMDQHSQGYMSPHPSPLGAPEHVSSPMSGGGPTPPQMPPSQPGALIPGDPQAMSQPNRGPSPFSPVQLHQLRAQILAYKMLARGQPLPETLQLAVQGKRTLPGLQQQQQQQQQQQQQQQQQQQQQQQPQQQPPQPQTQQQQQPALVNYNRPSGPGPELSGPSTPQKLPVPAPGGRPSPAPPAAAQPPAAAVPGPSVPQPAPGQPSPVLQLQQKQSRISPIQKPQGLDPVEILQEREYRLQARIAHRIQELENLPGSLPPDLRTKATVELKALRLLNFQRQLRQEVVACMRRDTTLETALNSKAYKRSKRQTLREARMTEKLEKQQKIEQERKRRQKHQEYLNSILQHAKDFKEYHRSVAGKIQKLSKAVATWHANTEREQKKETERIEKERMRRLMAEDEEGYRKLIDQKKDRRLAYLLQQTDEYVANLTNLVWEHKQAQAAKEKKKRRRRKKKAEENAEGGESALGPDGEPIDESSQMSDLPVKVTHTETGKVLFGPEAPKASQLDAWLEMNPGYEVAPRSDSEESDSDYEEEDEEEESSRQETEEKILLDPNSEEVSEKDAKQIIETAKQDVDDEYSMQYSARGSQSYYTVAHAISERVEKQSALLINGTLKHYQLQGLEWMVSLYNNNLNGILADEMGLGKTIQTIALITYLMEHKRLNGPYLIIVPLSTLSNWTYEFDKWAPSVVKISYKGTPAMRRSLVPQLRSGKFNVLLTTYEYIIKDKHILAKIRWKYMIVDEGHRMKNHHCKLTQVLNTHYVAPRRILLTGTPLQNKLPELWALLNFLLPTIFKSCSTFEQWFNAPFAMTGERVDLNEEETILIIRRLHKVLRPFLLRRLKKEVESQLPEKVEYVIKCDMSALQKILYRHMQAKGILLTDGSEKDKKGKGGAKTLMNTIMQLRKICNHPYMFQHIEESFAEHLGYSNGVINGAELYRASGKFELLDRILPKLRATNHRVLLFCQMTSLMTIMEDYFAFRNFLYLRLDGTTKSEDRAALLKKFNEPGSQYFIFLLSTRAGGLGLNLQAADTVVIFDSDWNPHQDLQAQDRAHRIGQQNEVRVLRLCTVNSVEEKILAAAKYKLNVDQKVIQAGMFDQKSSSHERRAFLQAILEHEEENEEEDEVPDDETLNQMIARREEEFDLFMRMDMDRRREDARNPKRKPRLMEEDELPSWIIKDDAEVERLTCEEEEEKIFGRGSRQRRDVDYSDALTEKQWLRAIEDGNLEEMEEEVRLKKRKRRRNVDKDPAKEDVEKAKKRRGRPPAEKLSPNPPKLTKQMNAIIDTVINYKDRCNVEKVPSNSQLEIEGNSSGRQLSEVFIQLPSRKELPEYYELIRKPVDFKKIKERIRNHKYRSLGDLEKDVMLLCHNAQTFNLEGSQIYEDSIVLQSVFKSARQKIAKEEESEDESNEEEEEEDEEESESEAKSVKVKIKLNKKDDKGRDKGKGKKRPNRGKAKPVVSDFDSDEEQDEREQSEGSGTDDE
Structure (SMILES),BRM Max % Inhibition [1],IC50 [1],IC50 [2],Emax [2]
COCCC(=O)N1CCN(c2cccc(-c3ccc4cnc(CNC(=O)c5ccc6c(c5)[C@](C)(C#N)COC6)cc4n3)n2)CC1 [Compound 288],101%,< 0.1 µM,100 to 500 nM,98%
COCCN1CCC(c2cccc(-c3ccc4cnc(CNC(=O)c5ccc6c(c5)[C@](C)(C#N)COC6)cc4n3)n2)CC1 [Compound 128],82%,0.1 to 0.5 µM,> 1000 nM,39%
C[C@@]1(C#N)COCc2ccc(C(=O)NCc3cc(C4CCN(c5ccccc5)C4)ccn3)cc21 (stereo partly shown) [Compound 62],90%,0.1 to 0.5 µM,> 1000 nM,42%
C[C@@H]1CN(c2cccc([C@H]3C[C@H](c4ccnc(CNC(=O)c5ccc6c(c5)[C@](C)(C#N)COC6)c4)C3)n2)C[C@H](C)O1 [Compound 81],98%,< 0.1 µM,100 to 500 nM,90%
C[C@@]1(F)COCc2ccc(C(=O)NCc3cc4nc(-c5cccc(C6(O)CC(F)(F)C6)n5)ccc4cn3)cc21 [Compound 169],98%,< 0.1 µM,100 to 500 nM,91%
C[C@@]1(C#N)COCc2ccc(C(=O)NCc3cnc4ccc(-c5ccccc5)nc4c3)cc21 [Compound 106],80%,> 1 µM,> 1000 nM,32%
COCCN1CCN(c2cccc(-c3ccc4cnc(CNC(=O)c5ccc6c(c5)[C@](C)(C#N)COC6)cc4n3)n2)CC1 [Compound 132],97%,0.1 to 0.5 µM,500 to 1000 nM,71%
COC(=O)N1CCCC(C#Cc2ccnc(CNC(=O)c3ccc4c(c3)[C@](C)(C#N)COC4)c2)C1 (stereo partly shown) [Compound 5],64%,> 1 µM,> 1000 nM,12%
C[C@@]1(C#N)COCc2ccc(C(=O)NCc3cc4c(cn3)CCN(c3ccnc(N5CCOCC5)n3)C4)cc21 [Compound 330],93%,0.1 to 0.5 µM,500 to 1000 nM,64%
C[C@@]1(F)COCc2ccc(C(=O)NCc3cc4nc(-c5cccc(C6(CO)CC6)n5)ccc4cn3)cc21 [Compound 168],99%,< 0.1 µM,100 to 500 nM,93%
C[C@@]1(F)COCc2ccc(C(=O)NCc3cc4nc(-c5ccnc(N6CCOCC6)n5)ccc4cn3)cc21 [Compound 259],99%,< 0.1 µM,100 to 500 nM,88%
C[C@@]1(C#N)COCc2ccc(C(=O)NCc3cc4c(cn3)CCN(c3ccnc(N5CCCC5)n3)C4)cc21 [Compound 331],97%,0.1 to 0.5 µM,500 to 1000 nM,73%
O=C(NCc1cc2nc(-c3cncc(C4CC4)n3)ccc2cn1)c1cnc2c(c1)C(O)(C(F)F)COC2 (stereo not shown) [Compound 246],88%,0.1 to 0.5 µM,> 1000 nM,23%
C[C@@]1(C#N)COCc2c(F)cc(C(=O)NCc3cc4nc(-c5ccccc5)ccc4cn3)cc21 [Compound 400],96%,0.1 to 0.5 µM,500 to 1000 nM,68%
Cn1nccc(-c2ccc3cnc(CNC(=O)c4ccc5c(c4)[C@](C)(F)COC5)cc3n2)c1=O [Compound 293],88%,0.1 to 0.5 µM,> 1000 nM,33%
C[C@@]1(F)COCc2ccc(C(=O)NCc3cc4cc(-c5cccc(N6CCC6)n5)ccc4cn3)cc21 [Compound 368],103%,< 0.1 µM,100 to 500 nM,96%
C[C@H]1COCCN1c1nccc(-c2ccc3cnc(CNC(=O)c4ccc5c(c4)[C@](C)(C#N)COC5)cc3n2)n1 [Compound 376],98%,0.1 to 0.5 µM,500 to 1000 nM,79%
COC(=O)c1cccc(C#Cc2ccnc(CNC(=O)c3ccc4c(c3)[C@](C)(O)COC4)c2)c1 [Compound 23],85%,0.5 to 1 µM,> 1000 nM,35%
COCCOCCC(=O)N1CCN(c2cccc(-c3ccc4cnc(CNC(=O)c5ccc6c(c5)[C@](C)(C#N)COC6)cc4n3)n2)CC1 [Compound 278],101%,< 0.1 µM,100 to 500 nM,96%
C[C@@]1(C#N)COCc2ccc(C(=O)NCc3cc(N4Cc5ccncc5C4)ccn3)cc21 [Compound 53],88%,0.1 to 0.5 µM,> 1000 nM,48%
C[C@@]1(C#N)COc2ccc(C(=O)NCc3cc4nc(-c5ccccc5)ccc4cn3)cc21 [Compound 99],63%,> 1 µM,> 1000 nM,22%

# More lines, now with the values ahead:
BRM Max % Inhibition [1],IC50 [1],IC50 [2],Emax [2],Structure (SMILES)
99%,< 0.1 µM,100 to 500 nM,89%,CN1CCN(c2cccc(-c3ccc4cnc(CNC(=O)c5ccc6c(c5)[C@](C)(C#N)COC6)cc4n3)n2)CC1 [Compound 465]
83%,> 1 µM,> 1000 nM,45%,C[C@@]1(C#N)COCc2ccc(C(=O)NCc3cc4nc(C5CC5)ccc4cn3)cc21 [Compound 94]
94%,0.1 to 0.5 µM,500 to 1000 nM,66%,Cc1cn(C)c2cccc(-c3ccc4cnc(CNC(=O)c5ccc6c(c5)[C@](C)(C#N)COC6)cc4n3)c12 [Compound 177]
99%,< 0.1 µM,500 to 1000 nM,78%,CC(F)(F)c1cncc(-c2ccc3cnc(CNC(=O)c4ccc5c(c4)[C@](C)(C#N)COC5)cc3n2)n1 [Compound 299]
91%,0.1 to 0.5 µM,500 to 1000 nM,67%,C[C@@]1(C#N)COCc2ccc(C(=O)NCc3cc4nc(-c5cnc(N6CCC6)cn5)ccc4cn3)cc21 [Compound 414]
100%,< 0.1 µM,100 to 500 nM,99%,Cn1c(=O)ccc2ccc(-c3ccc4cnc(CNC(=O)c5ccc6c(c5)[C@](C)(C#N)COC6)cc4n3)nc21 [Compound 180]
91%,0.1 to 0.5 µM,500 to 1000 nM,61%,Cn1ncc2c1CCN(c1ccc3cnc(CNC(=O)c4ccc5c(c4)[C@](C)(C#N)COC5)cc3n1)C2 [Compound 453]
97%,< 0.1 µM,100 to 500 nM,93%,Cn1ncc2ccc(-c3ccc4cnc(CNC(=O)c5ccc6c(c5)[C@](C)(C#N)COC6)cc4n3)cc2c1=O [Compound 448]
102%,< 0.1 µM,100 to 500 nM,95%,COc1cc(C)ccc1-c1ccc2cnc(CNC(=O)c3ccc4c(c3)[C@](C)(C#N)COC4)cc2n1 [Compound 144]
99%,< 0.1 µM,100 to 500 nM,87%,CN1Cc2nc(-c3ccc4cnc(CNC(=O)c5ccc6c(c5)[C@](C)(C#N)COC6)cc4n3)ccc2C1=O [Compound 427]
101%,< 0.1 µM,100 to 500 nM,93%,COc1ccccc1-c1ccc2cnc(CNC(=O)c3ccc4c(c3)[C@](C)(C#N)COC4)cc2n1 [Compound 111]
93%,0.1 to 0.5 µM,500 to 1000 nM,64%,COC1(c2cccc(-c3ccc4cnc(CNC(=O)c5ccc6c(c5)[C@](C)(C#N)COC6)cc4n3)n2)COC1 [Compound 419]
93%,0.1 to 0.5 µM,500 to 1000 nM,45%,COc1nn(C)cc1-c1nc2cc(CNC(=O)c3ccc4c(c3)[C@](C)(C#N)COC4)ncc2s1 [Compound 274]
85%,0.1 to 0.5 µM,> 1000 nM,29%,C[C@@]1(C#N)COCc2ccc(C(=O)NCc3cc4nc(-c5cnn(-c6cccnc6)c5)ccc4cn3)cc21 [Compound 499]
99%,< 0.1 µM,500 to 1000 nM,79%,C[C@@]1(C#N)COCc2ccc(C(=O)NCc3cc4nc(-c5ccnc([C@@H]6CC6(F)F)n5)ccc4cn3)cc21 [Compound 218]
97%,< 0.1 µM,> 1000 nM,81%,C[C@@]1(C#N)COCc2ccc(C(=O)NCc3cc4nc(-c5cccc(C(F)F)c5)ccc4cn3)cc21 [Compound 98]
101%,< 0.1 µM,100 to 500 nM,90%,C[C@@]1(C#N)COCc2ccc(C(=O)NCc3cc4nc(-c5cccc6c5ccn6CC(F)F)ccc4cn3)cc21 [Compound 147]
98%,< 0.1 µM,100 to 500 nM,95%,CC(C)n1ccc2c(-c3ccc4cnc(CNC(=O)c5ccc6c(c5)[C@](C)(C#N)COC6)cc4n3)cccc21 [Compound 174]
87%,0.1 to 0.5 µM,> 1000 nM,40%,Cn1cc(-c2ccc3cnc(CNC(=O)c4ccc5c(c4)[C@](C)(F)COC5)cc3n2)c(C#N)n1 [Compound 305]
91%,0.1 to 0.5 µM,500 to 1000 nM,59%,Cn1nc(-c2ccc3cnc(CNC(=O)c4ccc5c(c4)[C@](C)(C#N)COC5)cc3n2)cc1C(F)F [Compound 162]
98%,< 0.1 µM,500 to 1000 nM,78%,COc1cc(F)cc(-c2ccc3cnc(CNC(=O)c4ccc5c(c4)[C@](C)(C#N)COC5)cc3n2)c1 [Compound 101]
99%,0.1 to 0.5 µM,500 to 1000 nM,63%,C[C@@]1(C#N)COCc2ccc(C(=O)NCc3cc4cc(-c5ccnc(C6CC6)n5)cnc4cn3)cc21 [Compound 337]

# Source: patent US12441726B2, “Compounds and uses thereof” (Foghorn Therapeutics Inc., priority 2020, dated 2025)
